The values below come from ChEMBL document CHEMBL4616702 (ACS Med Chem Lett, 2020).

The target in series [1] is T1, Oxysterols receptor LXR-alpha (Homo sapiens, UniProt Q13133).
T1 sequence (Q13133 whole entry): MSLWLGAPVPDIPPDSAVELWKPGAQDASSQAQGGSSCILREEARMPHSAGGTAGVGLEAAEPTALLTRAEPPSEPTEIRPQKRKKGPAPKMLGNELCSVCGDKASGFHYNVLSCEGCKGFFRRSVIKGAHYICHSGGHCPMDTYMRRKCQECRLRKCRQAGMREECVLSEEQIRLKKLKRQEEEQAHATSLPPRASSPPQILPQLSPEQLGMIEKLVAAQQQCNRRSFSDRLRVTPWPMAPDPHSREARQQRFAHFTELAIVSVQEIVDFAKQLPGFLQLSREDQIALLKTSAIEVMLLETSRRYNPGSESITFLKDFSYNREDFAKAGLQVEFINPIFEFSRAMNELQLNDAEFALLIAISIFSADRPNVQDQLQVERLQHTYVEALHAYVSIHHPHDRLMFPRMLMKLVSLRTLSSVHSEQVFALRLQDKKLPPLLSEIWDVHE
The experiment in a line: Inverse agonist activity at LXRalpha (unknown origin).

Series [2] is described as follows: Cmax in Balb/c mouse at 10 mg/kg, po. In kind it is ADME, organism-based. More on the design: dose 10 mg/kg, route oral. To be noted: in vivo.
Series [3] can be described thus: AUC (0 to 24 hrs) in Balb/c mouse at 10 mg/kg, po. Details: dose 10 mg/kg, time < 24 hr, route oral. In kind it is ADME, organism-based. To be noted: in vivo.
Series [4] in a line: Drug concentration in Balb/c mouse at 10 mg/kg, po measured upto 24 hrs. In kind it is ADME, organism-based. The note with it: in vivo, read-out: Drug uptake.
The nature of series [5]: AUC (0 to 24 hrs) in mouse at 4 mg/kg, po. In kind it is ADME, organism-based. More on the design: dose 4 mg/kg, time < 24 hr, route oral. The note with it: in vivo.
Series [6] is described as follows: AUC (0 to 24 hrs) in rat at 4 mg/kg, po. The format is ADME, organism-based. Details: time < 24 hr, dose 4 mg/kg, route oral. To be noted: in vivo.
Series [7] in a line: Half life in mouse at 2 mg/kg, iv. In kind it is ADME, organism-based. The note with it: in vivo.
The nature of series [8]: Cmax in dog at 1 mg/kg, po. To be noted: in vivo. The format is ADME, organism-based, Canis lupus familiaris. Details: dose 1 mg/kg, route oral.
Series [9] can be described thus: Volume of distribution in steady state in mouse at 2 mg/kg, iv. The format is ADME, organism-based. To be noted: in vivo, read-out: Vdss.
Series [10] in a line: Volume of distribution in steady state in cynomolgus monkey at 1 mg/kg, iv. To be noted: in vivo, read-out: Vdss. In kind it is ADME, organism-based, Macaca fascicularis.
Series [11] can be described thus: Clearance in rat at 2 mg/kg, iv. The note with it: in vivo. In kind it is ADME, organism-based.
The nature of series [12]: Half life in human liver microsomes in presence of NADPH by LC/MS/MS method. The format is ADME, Microsome.
Series [13] in a line: Clearance in dog at 1 mg/kg, iv. To be noted: in vivo. The format is ADME, organism-based, Canis lupus familiaris.
Series [14] is described as follows: Cmax in mouse at 4 mg/kg, po. In kind it is ADME, organism-based. Details: dose 4 mg/kg, route oral. The note with it: in vivo.
Series [15] is described as follows: Volume of distribution in steady state in rat at 2 mg/kg, iv. In kind it is ADME, organism-based. To be noted: in vivo, read-out: Vdss.
In series [16] the target is T2, Cytochrome P450 1A2 (Homo sapiens, UniProt P05177).
T2 sequence (P05177 whole entry): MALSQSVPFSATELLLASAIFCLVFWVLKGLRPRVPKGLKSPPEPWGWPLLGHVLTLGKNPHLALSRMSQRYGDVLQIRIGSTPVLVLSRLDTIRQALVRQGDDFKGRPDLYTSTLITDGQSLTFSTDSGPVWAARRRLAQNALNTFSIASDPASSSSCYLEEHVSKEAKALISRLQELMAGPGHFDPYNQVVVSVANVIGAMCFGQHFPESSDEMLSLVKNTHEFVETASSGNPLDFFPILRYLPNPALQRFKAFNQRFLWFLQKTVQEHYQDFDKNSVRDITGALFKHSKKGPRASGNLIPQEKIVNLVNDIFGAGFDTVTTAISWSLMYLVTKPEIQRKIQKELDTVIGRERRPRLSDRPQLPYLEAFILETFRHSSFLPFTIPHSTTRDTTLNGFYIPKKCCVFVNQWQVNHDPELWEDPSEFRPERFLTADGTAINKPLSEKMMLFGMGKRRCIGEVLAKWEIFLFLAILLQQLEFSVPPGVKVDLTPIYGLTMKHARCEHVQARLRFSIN
Briefly: Inhibition of recombinant CYP1A2 (unknown origin). The format is ADME.

Series [17] concerns the target T3, Nuclear receptor ROR-alpha (Homo sapiens, UniProt P35398).
T3 sequence (P35398 whole entry): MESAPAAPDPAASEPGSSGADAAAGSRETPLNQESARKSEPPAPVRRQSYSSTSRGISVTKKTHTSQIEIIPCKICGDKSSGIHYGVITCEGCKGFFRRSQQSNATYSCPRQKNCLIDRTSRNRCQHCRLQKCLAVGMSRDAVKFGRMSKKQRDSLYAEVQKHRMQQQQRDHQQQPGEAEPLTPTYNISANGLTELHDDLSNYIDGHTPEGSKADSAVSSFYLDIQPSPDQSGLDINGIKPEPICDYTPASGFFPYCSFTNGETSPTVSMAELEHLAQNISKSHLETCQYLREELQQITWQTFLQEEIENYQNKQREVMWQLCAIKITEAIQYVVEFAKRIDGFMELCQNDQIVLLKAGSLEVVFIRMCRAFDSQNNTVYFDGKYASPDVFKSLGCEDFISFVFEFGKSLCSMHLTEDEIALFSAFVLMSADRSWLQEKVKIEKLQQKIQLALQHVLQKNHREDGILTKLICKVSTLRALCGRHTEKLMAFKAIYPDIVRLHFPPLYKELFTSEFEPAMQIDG
The experiment in a line: Inverse agonist activity at Gal4-fused RORalpha (unknown origin).

The target of series [18] is T4, Cytochrome P450 2C8 (Homo sapiens, UniProt P10632).
T4 sequence (P10632 whole entry): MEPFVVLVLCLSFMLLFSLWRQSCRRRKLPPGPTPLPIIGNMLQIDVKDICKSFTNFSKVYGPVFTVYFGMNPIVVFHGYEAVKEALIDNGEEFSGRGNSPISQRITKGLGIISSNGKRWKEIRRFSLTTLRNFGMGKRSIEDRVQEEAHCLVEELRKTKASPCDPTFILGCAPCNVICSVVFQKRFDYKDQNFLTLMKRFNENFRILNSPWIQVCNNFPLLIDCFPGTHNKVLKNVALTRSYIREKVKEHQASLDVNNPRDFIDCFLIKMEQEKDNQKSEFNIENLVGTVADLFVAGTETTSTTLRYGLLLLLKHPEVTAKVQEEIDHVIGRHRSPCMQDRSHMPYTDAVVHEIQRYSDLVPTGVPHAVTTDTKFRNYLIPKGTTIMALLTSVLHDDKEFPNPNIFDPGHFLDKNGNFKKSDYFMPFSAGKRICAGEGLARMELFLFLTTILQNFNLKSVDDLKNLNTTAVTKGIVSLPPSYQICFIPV
The experiment in a line: Inhibition of recombinant CYP2C8 (unknown origin). The format is ADME.

Each structure is given as a SMILES string. Some results are limits rather than exact numbers.

As to `C[C@H]1C[C@H](C(=O)O)CC[C@H]1C(=O)N1CC[C@@]2(S(=O)(=O)c3ccc(F)cc3)c3ccc(C(F)(C(F)(F)F)C(F)(F)F)cc3CC[C@@H]12` [BMS-986251], the EC50 in series [1] was over 7.5 µM; in [17], over 10 µM. Further, the results for the Cmax in [2], in series [8] and in series [14] were 11 µM, 6.4 µM and 4.8 µM, respectively. In addition, the area under the curve AUC(0-t) at 24 h was 68 µM·h in [3], 37 µM·h in [5] and 64 µM·h in series [6]. Besides, the concentration at 24 h in series [4] stood at 0.52 µM. In addition, the half-life is 7.7 h in series [7] and over 2 h in series [12]. The results for the Vd in series [9], in series [10] and in [15] were 1.9 L/kg, 2 L/kg and 1.2 L/kg, respectively. Besides, the clearance in series [11] was determined as 1.3 mL/min/kg; in series [13], 0.18 mL/min/kg. The IC50 is over 20 µM in series [16] and 16 µM in series [18].
